Measurements from patent US20210063374A1, “ABNORMAL CARDIAC RHYTHM MYOCARDIAL MODEL AND METHOD FOR PRODUCING SAME, AGENT FOR FORMING ABNORMAL CARDIAC RHYTHM MYOCARDIAL MODEL, AND METHOD FOR EVALUATING DRUG EFFICACY OF HEART DISEASE THERAPEUTIC” (TOPPAN PRINTING CO., LTD., priority 2017, published 2021).
Entries after “also recorded” stand apart in the source; their conditions may differ.

Tested on: myocardial models composed of three-dimensional tissues (iPS-CM 75%/NHCF 25%)
Test: Evaluation of drug response to isoproterenol (change rate of the number of beats of myocardial model)
Type: cell-based, human
Settings: 100 nM isoproterenol, 30, 60, 80 min incubation, FIG. 12
Protocol: 5 mL of 10× phosphate buffered saline (PBS) was added to 50 mg of a pig skin-derived type I collagen (provided by NH Foods Ltd.), and was subjected to homogenization by using a homogenizer for 6 min. Subsequently, centrifugation was performed at 10000 rpm for 3 min to remove the supernatant. 5 mL of serum-free DMEM was added thereto, followed by washing by pipetting for 1 min. After the washing, centrifugation was performed at 10000 rpm for 3 min to remove the supernatant. 5 mL of serum-containing DMEM was added thereto to prepare a culture medium (CMF concentration: 9.8 mg/mL) having fragmented collagens (CMF) dispersed therein. Dispersions were weighed from the culture medium having CMF dispersed therein such that the amounts of CMFs were 0, 1, 2, and 3 mg, were mixed with 5×10^5 cells of iPS-CM 75%/NHCF 25%, and were seeded in a 96-well round-bottomed non-adherent plate (the amount of the culture medium: 300 μL). Subsequently, centrifugation was performed at 1100 g for 5 min to precipitate the CMFs and the cells. After the centrifugation, culturing was performed in a culture-ware at 37° C. The culture medium was replaced every 2 days by removing the old culture medium and adding 300 μL of new culture medium.
A three-dimensional tissue was constructed in the same manner as above. […] The content of the collagen in the three-dimensional tissue was measured using the kit above according to the standard protocol of the kit.
The cardiac rhythms of the tissues after culturing for 5 to 6 days were taken using a SONY Motion analyzer to measure the number of beats. […] From the results of measurement, the change rate of the number of beats (change rate of beating) by adding isoproterenol was calculated from the following equation. […]
The change rate of the number of beats caused by addition of isoproterenol is determined by the equation above, and this value is corrected by the equation below, i.e., by dividing this value by the change rate of the number of beats when the drug is not added (=a change in the number of beats caused by replacement of the culture medium).

CC(C)NCC(O)c1ccc(O)c(O)c1 (stereo not drawn) [isoproterenol]
drug response (change rate of the number of beats) (myocardial model with 0 mg CMFs): poor | drug response (change rate of the number of beats) (myocardial model with 1 mg CMFs): exhibited; also recorded: more favorable drug response | drug response (change rate of the number of beats) (myocardial model with 3 mg CMFs): exhibited
